Source: PMC5225203, “Multiparameter toxicity assessment of novel DOPO-derived organophosphorus flame retardants” (Archives of Toxicology, 2016)
Where two headings read alike, the source gives them in different places.

Assays:
[1] = tested on: differentiated LUHMES cells; format: cell-based, human; conditions: at high concentrations, correlated with neurite degeneration
Procedure: Suppl. Fig. 10. Migration of mitochondria in neurites. Mitochondrial migration was detected in fully differentiated (day 6 of differentiation, DoD6) mixed LUHMES cultures consisting of 3% eGFP/mito-tRFP-overexpressing LUHMES in 97% unlabeled LUHMES in order to allow tracking of mitochondria in single neurites in an environment of normal LUHMES cell density (Schildknecht et al. 2013, ALTEX 30(4):427-444). Single cell time lapse imaging was performed for a period of 90 s in intervals of 3 s with a Zeiss LSM 780 inverted fluorescence microscope YOKOGAWA CSU-XI spinning disk system using an EVOLVE camera (Carl Zeiss Group, Oberkochen, Germany) equipped with a 5% CO2 /37°C controlled chamber and a 40 x 1.3 NA oil objective. For image analysis, kymographs (graphical representation of spatial position over time) based on the data obtained from single cell time lapse experiments were created using ImageJ Software (NIH, Bethesda, USA). The neurite was manually defined by the segmented line tool. To calculate mitochondrial velocity, diagonal lines were drawn for each moving mitochondrium in the kymograph and analysed by calculating the slope with the macro-plugin Kymo Line ROI, generated by Felix Schöneberger, Bioimaging Center (BIC), University of Konstanz, Germany.
(§1) (1 picture or pasted object on this page, not shown here)

[2] = tested on: neuronal and non-neuronal cell models; assay: Synopsis of all in vitro assays applied in this work; format: cell-based, human; conditions: for IC50: Homo sapiens, read-out: average IC50 values; for concentration with cell type-independent cytotoxic properties: all cellular in vitro models; for cytotoxic effects: at concentrations higher than 100 µM
Procedure: IC50 values are defined by the concentration of the flame retardant investigated where the response was reduced by half. Log-transformed flame retardant concentration values and the respective response data were fitted to a four-parameter logistic equation: y=A+B-A/1+(x/C)^D The percent inhibition response data are represented by y; B = maximum of y; A = minimum of y; x = flame retardant concentration; C = IC50; D = Hill slope factor. The IC50 values were calculated from these sigmoidal dose–response curves utilizing Prism 5.0 (GraphPad, San Diego, CA, USA) software.

[3] = tested on: fully differentiated LUHMES cells; assay: Toxicity in mature central nervous system neurons (neurite mass, viability); format: cell-based, human; conditions: 48 h; for concentration evoking degeneration of neurites: day 6–8, all assays; for influence on neurites / viability: concentrations as high as 100 µM
Procedure: LUHMES cells are conditionally immortalized human fetal ventral mesencephalic neuronal precursor cells that were obtained by clonal selection. Differentiated LUHMES cells show a clear dopaminergic phenotype, which was described in detail previously (Schildknecht et al. [2009]; Scholz et al. [2011]). Cells were propagated in advanced DMEM/F12 (Gibco/Invitrogen, Darmstadt, Germany) with 1 × N2 supplement (Invitrogen), 2 mM L-glutamine (Gibco), and 40 ng/mL recombinant bFGF (R&D Systems, Minneapolis, MN, USA). The differentiation process was initiated by adding differentiation medium consisting of advanced DMEM/F12, 1 × N2 supplement, 2 mM L-glutamine, 1 mM dibutyryl cAMP (Sigma), 1 µg/mL tetracycline (Sigma), and 2 ng/mL recombinant human GDNF (R + D Systems). After 2 days, cells were trypsinized, collected in advanced DMEM/F12 medium, and seeded onto 24-well plates at a density of 160,000 cells/cm^2. The differentiation process was continued for 4 days. Fully differentiated LUHMES cells were treated with the tested flame retardants for 48 h from day 6 to 8 of differentiation. For visualization of morphology, cells were fixed with 4 % paraformaldehyde for 20 min at room temperature, permeabilized with 0.2 % Triton X-100, washed with PBS, blocked with 1 % BSA (Calbiochem, San Diego, CA, USA) in PBS for 1 h, and stained with a polyclonal anti-β-III-tubulin antibody (Sigma) in 1 % BSA/PBS at 4 °C overnight. After washing, secondary antibodies (anti-mouse-IgG, Alexa 488, Molecular Probes; 1:1000) in 1 % BSA/PBS were added for 1 h, after which nuclei were stained with Hoechst dye H-33342 (1 µg/mL) for 20 min. For visualization, an Olympus IX 81 microscope (Hamburg, Germany) equipped with an F-view CCD camera was used. For quantitative evaluation of the neurite area, β-III-tubulin-stained cells were analyzed using an automated microplate-reading microscope (Array-Scan II® HCS Reader, Cellomics, Pittsburgh, PA, USA) equipped with a Hamamatsu ORCA-ER camera (1024 × 1024 resolution; run at 2 × 2 binning). Nuclei were identified according to their intensity, size, area, and shape. A virtual area corresponding to the cell soma was defined around each nucleus. The total β-III-tubulin pixel area per field minus the soma areas in that field was defined as neurite mass.
[% of total activity ± SD]
[% of total activity± SD]
Suppl. Fig. 7. Toxicity of flame retar dants in central human neurons. Mature human dopaminergic neurons (LUHMES) were treated w ith the different flame retardants in the concentrations as indicated for 48 h from day 6 to day 8 of differentiation. a Cell viability was determined by the resazurin reduction and by the lact ate dehydrogenase release a ssays. b Intracellular levels of ATP and of reduced glutathione (GSH) were measured in parallel.

[4] = tested on: Daphnia magna; assay: Acute daphnia immobilization test (OECD guideline 202); format: in vivo; conditions: for Immobile Daphnia after 48 h: 20 individuals; for daphnia viability: at concentrations ≤400 µM (abstract)
Procedure: Loading Num ber of I m m obile rate Replicat e individuals Da phnia
(mg/l) per test af t er 48 h
Suppl. Fig. 5. Freshwater microcrustacean toxicity test. Acute toxicity was determined in Daphnia magna according to the standardized OECD guidelines number 202 test, performed by BMG Engineering Ltd., Schlieren, Switzerland. Daphnia were cultured in aerated Elendt M4 medium at a constant temperature of 21°C under a 16:8 light/dark photoperiod. The water soluble fraction of the indicated concentrations of flame retardants were added for 48 h.
Mortality was assessed by the detection of movement analysis. Immobile Daphnia were defined as those animals displaying no movement within a 15 s period following shaking of […]

[5] = tested on: Desmodesmus subspicatus; format: cell-based
Procedure: Suppl. Fig. 6. Freshwater microalgae toxicity test. Acute toxicity was tested by assessing algal growth inhibition applying Desmodesmus subspicatus according to OECD guideline number 201. Growth inhibition tests were performed using an initial cell density of 5 x 10^3 cells/ml (= OD680 of 0.005). The cells were maintained in 250 mL flasks containing 100 mL of sterile OECD algal medium at 22°C at 130 rpm illuminated with 3000 lux. Cell density was detected photospectrometrically at λ680 nm in 24 h intervals in algae cultures treated with the respective flame retardants. Experiments were performed by BMG Engineering Ltd., […]
as §1

[6] = loading rate 10 mg/l, replicate A
[7] = loading rate 10 mg/l, replicate B
[8] = loading rate 100 mg/l, replicate A
[9] = loading rate 100 mg/l, replicate B
[10] = loading rate 1000 mg/l, replicate A
[11] = loading rate 1000 mg/l, replicate B
[12] = highest tested concentrations, water-soluble fraction of 1000 mg/L (approximately 2 mM)
[13] = at concentrations ≤400 µM (abstract)

| SMILES | mitochondrial velocity [1] | concentration with distinct neuro-selective cytotoxicity ([2]; abstract) | concentration detrimentally influencing central and peripheral neurons ([2]; central and peripheral neurons) | toxicity in non-neuronal models ([2]; macrophages, lung epithelial cells, keratinocytes, concentrations as high as 400 µM) | concentration evoking degeneration of neurites [3] | Immobile Daphnia after 48 h [4, 6] | Immobile Daphnia after 48 h [4, 7] | Immobile Daphnia after 48 h [4, 8] | Immobile Daphnia after 48 h [4, 9] | Immobile Daphnia after 48 h [4, 10] | Immobile Daphnia after 48 h [4, 11] | IC50 [2] | concentration with cell type-independent cytotoxic properties [2] | algae growth [5, 12] | daphnia viability [4] | cytotoxic effects [2] | influence on all parameters investigated ([2]; concentrations up to 400 µM) | algae growth [5, 13] | influence on neurites / viability [3] | harmful effects ([2]; all assays utilized) |
| --- | --- | --- | --- | --- | --- | --- | --- | --- | --- | --- | --- | --- | --- | --- | --- | --- | --- | --- | --- | --- |
| Brc1ccc(Oc2cc(Br)c(Br)cc2Br)c(Br)c1 [PBDE-99, reference compound] | influenced mitochondrial velocity | ≥ 10 µM | > 10 µM | no significant toxicity | > 10 µM | – | – | – | – | – | – | – | – | – | – | – | – | – | – | – |
| O=P1(OCCOP2(=O)Oc3ccccc3-c3ccccc32)Oc2ccccc2-c2ccccc21 (centres unmarked) [EG-DOPO, 6,6′-(ethane-1,2-diylbis(oxy))bis(6H-dibenzo[c,e][1,2]oxaphosphinine-6-oxide)] | influenced mitochondrial velocity | – | – | – | > 10 µM | 0% | 0% | 10% | 0% | 5% | 10% | 20 to 100 µM | > 10 µM | inhibited algae growth | – | – | – | – | – | – |
| O=[PH]1Oc2ccccc2-c2ccccc21 (centres unmarked) [DOPO, 9,10-dihydro-9-oxa-10-phosphaphenanthrene-10-oxide] | – | – | – | – | – | – | – | – | – | – | – | – | – | – | nor did they affect algae growth or daphnia viability | no comparable effects | no influence | nor did they affect algae growth or daphnia viability | no influence | – |
| O=P1(NCCNP2(=O)Oc3ccccc3-c3ccccc32)Oc2ccccc2-c2ccccc21 (centres unmarked) [EDA-DOPO, 6,6′-(ethane-1,2-diylbis(azanediyl))bis(6H-dibenzo[c,e][1,2]oxaphosphinine-6-oxide)] | – | – | – | – | – | 0% | 0% | 0% | 0% | 5% | 10% | – | – | no effect | nor did they affect algae growth or daphnia viability | no comparable effects | – | nor did they affect algae growth or daphnia viability | no influence | no harmful effects |
| O=P1(NCCOP2(=O)Oc3ccccc3-c3ccccc32)Oc2ccccc2-c2ccccc21 (centres unmarked) [ETA-DOPO, 6-(2-((6-oxido-6H-dibenzo[c,e][1,2]oxaphosphinin-6-yl)amino)ethoxy)-6H-dibenzo[c,e][1,2]oxaphosphinine 6-oxide] | influenced mitochondrial velocity | – | – | – | > 10 µM | 5% | 0% | 0% | 0% | 5% | 0% | 20 to 100 µM | > 10 µM | no effect | – | – | – | – | – | – |
